Reference: paper PMC12120022, “Discovery and chemical optimisation of a potent, Bi-cyclic antimicrobial inhibitor of Escherichia coli PBP3” (Communications Biology, 2025)
Where a SMILES comes first, the peptide text is derived from it.

biological target: T1, EcPBP3 (Escherichia coli, UniProt P0AD68); assay: Fluorescence polarisation competition assay with fluorescent Bicycle tracer (tracer 1 / BCY12820); assay type: binding; details: protein 9.4 nM sets sensitivity limit, top concentration 5 µM, read-out: Ki (nM) by fluorescence polarisation with tracer 1 (BCY12820 as tracer), Geometric mean (Lower 95% CI; Upper 95% CI, n=number of values)
T1 construct: For assays, selections and SPR a construct with residues 60–588 which has the N-terminal domain, but not the transmembrane helix, was used; made in house
T1 sequence (P0AD68 60-588): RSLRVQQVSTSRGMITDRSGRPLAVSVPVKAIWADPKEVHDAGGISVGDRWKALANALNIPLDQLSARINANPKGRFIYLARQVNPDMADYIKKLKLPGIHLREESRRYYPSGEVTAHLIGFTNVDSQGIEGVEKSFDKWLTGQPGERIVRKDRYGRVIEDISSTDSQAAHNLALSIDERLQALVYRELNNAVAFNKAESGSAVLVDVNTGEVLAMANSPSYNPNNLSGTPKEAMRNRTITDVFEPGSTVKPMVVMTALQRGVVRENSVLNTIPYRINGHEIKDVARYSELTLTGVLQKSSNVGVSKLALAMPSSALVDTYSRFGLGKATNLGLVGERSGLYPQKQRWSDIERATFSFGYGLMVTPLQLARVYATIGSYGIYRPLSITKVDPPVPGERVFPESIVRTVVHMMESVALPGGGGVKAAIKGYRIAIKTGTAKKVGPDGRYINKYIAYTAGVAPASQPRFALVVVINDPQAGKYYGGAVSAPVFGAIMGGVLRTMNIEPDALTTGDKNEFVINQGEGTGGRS
Method: Competition fluorescence polarisation assays were run by observing the fluorescence polarisation of a fluorescent “tracer” Bicycle molecule which competes against an unlabelled peptide for binding to the EcPBP3 target. 10 µL of protein (9.4 nM) was mixed with either 5 µL of peptide or 5 µL of buffer and then the assay was initiated by the addition of 10 µL of tracer (1 nM) (final volume 25 µL), in a black 384 low bind, low volume plate (Corning). The buffer was 10 mM HEPES (Sigma), 2% (v/v) glycerol (Sigma), 300 mM NaCl (Sigma), adjusted to pH 8. The plate was incubated for 1 h at 25 °C and then read in a PHERAstar FS (BMG) using with an “FP 485 520 520” optic module (excitation 485 nm, emission 520 nm). The gain was determined immediately prior to the read on a tracer-only well.
Dotmatics (Dotmatics) workflows performing the above calculations were used to process the data. Values quoted are the geometric means of at least 2 repeats.

Compound	Ki
CC(C)[C@@H]1NC(=O)[C@H](Cc2c[nH]c3ccccc23)NC(=O)[C@@H]2CCCN2C(=O)[C@@H]2CSCCC(=O)N3CN(CN(C3)C(=O)CCSC[C@H](NC(=O)[C@H](C)N)C(=O)N[C@@H](CCC(N)=O)C(=O)N[C@@H](Cc3ccccc3)C(=O)N3CCC[C@H]3C(=O)N[C@@H](CCCCNC(=N)N)C(=O)N2)C(=O)CCSC[C@@H](C(=O)N[C@@H](C)C(N)=O)NC(=O)CNC(=O)[C@H](CCC(=O)O)NC1=O [Peptide 30] (HELM PEPTIDE1{A.C.Q.F.P.[N=C(N)NCCCC[C@H](N[*:1])C(=O)[*:2]].C.P.W.V.E.G.C.A.[am]}|CHEM1{[O=C(CC[*:1])N1CN(C(=O)CC[*:2])CN(C(=O)CC[*:3])C1]}$PEPTIDE1,CHEM1,2:R3-1:R1|PEPTIDE1,CHEM1,7:R3-1:R2|PEPTIDE1,CHEM1,13:R3-1:R3$$$V2.0)	< 9 nM
CC(C)[C@@H]1NC(=O)[C@H](Cc2c[nH]c3ccccc23)NC(=O)[C@@H]2CCCN2C(=O)[C@@H]2CSCCC(=O)N3CN(CN(C3)C(=O)CCSC[C@H](NC(=O)[C@H](C)N)C(=O)N[C@@H](CO)C(=O)N[C@@H](Cc3ccccc3)C(=O)NCC(=O)N[C@@H](CCCCNC(=N)N)C(=O)N2)C(=O)CCSC[C@@H](C(=O)N[C@@H](C)C(N)=O)NC(=O)CNC(=O)[C@H](CCC(=O)O)NC1=O [Peptide 33] (HELM PEPTIDE1{A.C.S.F.G.[N=C(N)NCCCC[C@H](N[*:1])C(=O)[*:2]].C.P.W.V.E.G.C.A.[am]}|CHEM1{[O=C(CC[*:1])N1CN(C(=O)CC[*:2])CN(C(=O)CC[*:3])C1]}$PEPTIDE1,CHEM1,2:R3-1:R1|PEPTIDE1,CHEM1,7:R3-1:R2|PEPTIDE1,CHEM1,13:R3-1:R3$$$V2.0)	53.5 nM
CC(C)[C@@H]1NC(=O)[C@H](Cc2c[nH]c3ccccc23)NC(=O)[C@@H]2CCCN2C(=O)[C@@H]2CSCCC(=O)N3CN(CN(C3)C(=O)CCSC[C@H](NC(=O)[C@H](C)N)C(=O)NCC(=O)N[C@@H](Cc3ccccc3)C(=O)N3CCC[C@H]3C(=O)N[C@@H](CCCCNC(=N)N)C(=O)N2)C(=O)CCSC[C@@H](C(=O)N[C@@H](C)C(N)=O)NC(=O)CNC(=O)[C@H](CCC(=O)O)NC1=O [Peptide 26] (HELM PEPTIDE1{A.C.G.F.P.[N=C(N)NCCCC[C@H](N[*:1])C(=O)[*:2]].C.P.W.V.E.G.C.A.[am]}|CHEM1{[O=C(CC[*:1])N1CN(C(=O)CC[*:2])CN(C(=O)CC[*:3])C1]}$PEPTIDE1,CHEM1,2:R3-1:R1|PEPTIDE1,CHEM1,7:R3-1:R2|PEPTIDE1,CHEM1,13:R3-1:R3$$$V2.0)	17.1 nM
CC(C)[C@@H]1NC(=O)[C@H](Cc2c[nH]c3ccccc23)NC(=O)[C@@H]2CCCN2C(=O)[C@@H]2CSCCC(=O)N3CN(CN(C3)C(=O)CCSC[C@@H](C(=O)N[C@@H](C)C(N)=O)NC(=O)[C@H](CC(N)=O)NC(=O)[C@H](CCC(=O)O)NC1=O)C(=O)CCSC[C@H](NC(=O)[C@H](C)N)C(=O)N[C@@H](CO)C(=O)N[C@@H](Cc1ccccc1)C(=O)N1CCC[C@H]1C(=O)N[C@@H](CCCCNC(=N)N)C(=O)N2 [Peptide 52] (HELM PEPTIDE1{A.C.S.F.P.[N=C(N)NCCCC[C@H](N[*:1])C(=O)[*:2]].C.P.W.V.E.N.C.A.[am]}|CHEM1{[O=C(CC[*:1])N1CN(C(=O)CC[*:2])CN(C(=O)CC[*:3])C1]}$PEPTIDE1,CHEM1,2:R3-1:R1|PEPTIDE1,CHEM1,7:R3-1:R2|PEPTIDE1,CHEM1,13:R3-1:R3$$$V2.0)	< 9 nM
CC(C)[C@@H]1NC(=O)[C@H](Cc2c[nH]c3ccccc23)NC(=O)[C@@H]2CCCN2C(=O)[C@@H]2CSCCC(=O)N3CN(CN(C3)C(=O)CCSC[C@H](NC(=O)[C@H](C)N)C(=O)N[C@@H](CCC(=O)O)C(=O)N[C@@H](Cc3ccccc3)C(=O)N3CCC[C@H]3C(=O)N[C@@H](CCCCNC(=N)N)C(=O)N2)C(=O)CCSC[C@@H](C(=O)N[C@@H](C)C(N)=O)NC(=O)CNC(=O)[C@H](CCC(=O)O)NC1=O [Peptide 31] (HELM PEPTIDE1{A.C.E.F.P.[N=C(N)NCCCC[C@H](N[*:1])C(=O)[*:2]].C.P.W.V.E.G.C.A.[am]}|CHEM1{[O=C(CC[*:1])N1CN(C(=O)CC[*:2])CN(C(=O)CC[*:3])C1]}$PEPTIDE1,CHEM1,2:R3-1:R1|PEPTIDE1,CHEM1,7:R3-1:R2|PEPTIDE1,CHEM1,13:R3-1:R3$$$V2.0)	< 9 nM
CC[C@H](C)[C@@H]1NC(=O)[C@H](Cc2c[nH]c3ccccc23)NC(=O)[C@@H]2CCCN2C(=O)[C@@H]2CSCCC(=O)N3CN(CN(C3)C(=O)CCSC[C@H](NC(=O)[C@H](C)N)C(=O)N[C@@H](CO)C(=O)N[C@@H](Cc3ccccc3)C(=O)N3CCC[C@H]3C(=O)N[C@@H](CCCCNC(=N)N)C(=O)N2)C(=O)CCSC[C@@H](C(=O)N[C@@H](C)C(N)=O)NC(=O)CNC(=O)[C@H](CCC(=O)O)NC1=O [Peptide 45] (HELM PEPTIDE1{A.C.S.F.P.[N=C(N)NCCCC[C@H](N[*:1])C(=O)[*:2]].C.P.W.I.E.G.C.A.[am]}|CHEM1{[O=C(CC[*:1])N1CN(C(=O)CC[*:2])CN(C(=O)CC[*:3])C1]}$PEPTIDE1,CHEM1,2:R3-1:R1|PEPTIDE1,CHEM1,7:R3-1:R2|PEPTIDE1,CHEM1,13:R3-1:R3$$$V2.0)	< 9 nM
CC(C)[C@@H]1NC(=O)[C@H](Cc2c[nH]cn2)NC(=O)[C@@H]2CCCN2C(=O)[C@@H]2CSCCC(=O)N3CN(CN(C3)C(=O)CCSC[C@H](NC(=O)[C@H](C)N)C(=O)N[C@@H](CO)C(=O)N[C@@H](Cc3ccccc3)C(=O)N3CCC[C@H]3C(=O)N[C@@H](CCCCNC(=N)N)C(=O)N2)C(=O)CCSC[C@@H](C(=O)N[C@@H](C)C(N)=O)NC(=O)CNC(=O)[C@H](CCC(=O)O)NC1=O [Peptide 44] (HELM PEPTIDE1{A.C.S.F.P.[N=C(N)NCCCC[C@H](N[*:1])C(=O)[*:2]].C.P.H.V.E.G.C.A.[am]}|CHEM1{[O=C(CC[*:1])N1CN(C(=O)CC[*:2])CN(C(=O)CC[*:3])C1]}$PEPTIDE1,CHEM1,2:R3-1:R1|PEPTIDE1,CHEM1,7:R3-1:R2|PEPTIDE1,CHEM1,13:R3-1:R3$$$V2.0)	> 5000 nM
CC(C)[C@@H]1NC(=O)[C@H](Cc2c[nH]c3ccccc23)NC(=O)[C@@H]2CCCN2C(=O)[C@@H]2CSCCC(=O)N3CN(CN(C3)C(=O)CCSC[C@H](NC(=O)[C@H](C)N)C(=O)N[C@@H](CO)C(=O)N[C@@H](Cc3ccccc3)C(=O)N[C@@H](CC(=O)O)C(=O)N[C@@H](CCCCNC(=N)N)C(=O)N2)C(=O)CCSC[C@@H](C(=O)N[C@@H](C)C(N)=O)NC(=O)CNC(=O)[C@H](CCC(=O)O)NC1=O [Peptide 38] (HELM PEPTIDE1{A.C.S.F.D.[N=C(N)NCCCC[C@H](N[*:1])C(=O)[*:2]].C.P.W.V.E.G.C.A.[am]}|CHEM1{[O=C(CC[*:1])N1CN(C(=O)CC[*:2])CN(C(=O)CC[*:3])C1]}$PEPTIDE1,CHEM1,2:R3-1:R1|PEPTIDE1,CHEM1,7:R3-1:R2|PEPTIDE1,CHEM1,13:R3-1:R3$$$V2.0)	167 nM
CC(C)[C@@H]1NC(=O)[C@H](Cc2c[nH]c3ccccc23)NC(=O)[C@@H]2CCCN2C(=O)[C@@H]2CSCCC(=O)N3CN(CN(C3)C(=O)CCSC[C@H](NC(=O)[C@H](C)N)C(=O)N[C@@H](CO)C(=O)N[C@@H](Cc3ccccc3)C(=O)N[C@@H]([C@@H](C)O)C(=O)N[C@@H](CCCCNC(=N)N)C(=O)N2)C(=O)CCSC[C@@H](C(=O)N[C@@H](C)C(N)=O)NC(=O)CNC(=O)[C@H](CCC(=O)O)NC1=O [Peptide 36] (HELM PEPTIDE1{A.C.S.F.T.[N=C(N)NCCCC[C@H](N[*:1])C(=O)[*:2]].C.P.W.V.E.G.C.A.[am]}|CHEM1{[O=C(CC[*:1])N1CN(C(=O)CC[*:2])CN(C(=O)CC[*:3])C1]}$PEPTIDE1,CHEM1,2:R3-1:R1|PEPTIDE1,CHEM1,7:R3-1:R2|PEPTIDE1,CHEM1,13:R3-1:R3$$$V2.0)	75 nM
CC(C)[C@@H]1NC(=O)[C@H](Cc2c[nH]c3ccccc23)NC(=O)CNC(=O)[C@@H]2CSCCC(=O)N3CN(CN(C3)C(=O)CCSC[C@H](NC(=O)[C@H](C)N)C(=O)N[C@@H](CO)C(=O)N[C@@H](Cc3ccccc3)C(=O)N3CCC[C@H]3C(=O)N[C@@H](CCCCNC(=N)N)C(=O)N2)C(=O)CCSC[C@@H](C(=O)N[C@@H](C)C(N)=O)NC(=O)CNC(=O)[C@H](CCC(=O)O)NC1=O [Peptide 41] (HELM PEPTIDE1{A.C.S.F.P.[N=C(N)NCCCC[C@H](N[*:1])C(=O)[*:2]].C.G.W.V.E.G.C.A.[am]}|CHEM1{[O=C(CC[*:1])N1CN(C(=O)CC[*:2])CN(C(=O)CC[*:3])C1]}$PEPTIDE1,CHEM1,2:R3-1:R1|PEPTIDE1,CHEM1,7:R3-1:R2|PEPTIDE1,CHEM1,13:R3-1:R3$$$V2.0)	> 5000 nM
CC(C)[C@@H]1NC(=O)[C@H](Cc2c[nH]c3ccccc23)NC(=O)[C@@H]2CCCN2C(=O)[C@@H]2CSCCC(=O)N3CN(CN(C3)C(=O)CCSC[C@H](NC(=O)[C@H](C)N)C(=O)N[C@@H](CO)C(=O)N[C@@H](Cc3ccccc3)C(=O)N[C@@H](Cc3c[nH]cn3)C(=O)N[C@@H](CCCCNC(=N)N)C(=O)N2)C(=O)CCSC[C@@H](C(=O)N[C@@H](C)C(N)=O)NC(=O)CNC(=O)[C@H](CCC(=O)O)NC1=O [Peptide 37] (HELM PEPTIDE1{A.C.S.F.H.[N=C(N)NCCCC[C@H](N[*:1])C(=O)[*:2]].C.P.W.V.E.G.C.A.[am]}|CHEM1{[O=C(CC[*:1])N1CN(C(=O)CC[*:2])CN(C(=O)CC[*:3])C1]}$PEPTIDE1,CHEM1,2:R3-1:R1|PEPTIDE1,CHEM1,7:R3-1:R2|PEPTIDE1,CHEM1,13:R3-1:R3$$$V2.0)	31.5 nM
